Measured values as given in US12649980B2, “Three-dimensional surface for protein and small molecule microarrays” (The Johns Hopkins University, priority 2019, dated 2026).

Key:
[1] = biological target: T1, GLUT1 (Homo sapiens, UniProt P11166); test: rapafucin 3D microarray screen with GLUT1-containing cell lysate; format: binding; conditions: signal-to-background ratio, 3D surface, lysate of GLUT1-overexpressing HEK293T; hit if SBR > 3
T1 construct: The full-length human SLC2A1, SLC2A3, and SLC2A4 genes were PCR amplified and inserted into pLenti6M vector 2; expressed in transfected cells
T1 sequence (P11166 1-492): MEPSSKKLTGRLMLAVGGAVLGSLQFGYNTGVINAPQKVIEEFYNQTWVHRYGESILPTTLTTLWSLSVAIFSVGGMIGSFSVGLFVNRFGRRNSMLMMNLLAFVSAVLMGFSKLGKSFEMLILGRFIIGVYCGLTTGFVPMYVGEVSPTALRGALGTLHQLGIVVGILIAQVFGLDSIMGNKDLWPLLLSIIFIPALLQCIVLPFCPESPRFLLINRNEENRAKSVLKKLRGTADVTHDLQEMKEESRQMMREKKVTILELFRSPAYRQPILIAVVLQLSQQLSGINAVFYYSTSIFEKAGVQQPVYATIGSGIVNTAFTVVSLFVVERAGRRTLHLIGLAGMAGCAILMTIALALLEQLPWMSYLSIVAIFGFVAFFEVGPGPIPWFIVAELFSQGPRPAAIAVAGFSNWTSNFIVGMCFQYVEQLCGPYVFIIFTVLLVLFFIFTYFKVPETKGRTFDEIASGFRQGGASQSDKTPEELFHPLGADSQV
From the text: Once stock solutions of the rapafucin library were arrayed on the 2D or 3D surface and most of solvent carrier was evaporated, the crosslinking reaction was initiated by irradiating the surfaces with 365-nm wavelength UV light. Kawatani and Osada, Medchemcomm 2014, 5, 277-287. […] To screen for GLUT1-interacting rapafucins, GLUT1 was stably overexpressed in HEK293T cells and generated cell lysates containing detergent-solubilized recombinant GLUT1 (FIG. 10). The GLUT1-containing cell lysate was then incubated on both 2D and 3D rapafucin microarrays. After washing the slides to remove unbound proteins, the bound GLUT1 protein was detected with anti-GLUT1 antibodies, followed by visualization with Cy5-labeled secondary antibodies using a microarray scanner. Rapafucins were scored as positive hits when the corresponding SBR was greater than 3. Based on this criterion, a total of 17 rapafucin hits and one positive control BAY-876, a specific GLUT1 inhibitor, Siebeneicher et al., ChemMedChem 2016, 11, 2261-2271, were identified on the 3D rapafucin microarray. In contrast, only one hit (WL13-F11, also among the 17 hits identified from the 3D rapafucin microarray) was identified on the 2D rapafucin microarray (Table 1, FIG. 11).
The amine substrates (Arrayit, SMM) were immerged in a mixture of 2-bromoisobutyryl bromide (BIBB, 0.1 mM, as initiator) and propionyl bromide (10 mM, as horizontal spacer) with triethylamine (15 mM) in DCM for 4 hours. A degassed polymerization reaction mixture, containing copper (II) chloride dihydrate (CuCl2, 4 mmol), 2,2′-bipyridine (2 mmol), 75 mmol monomers mixture of 2-(dimethylamino)ethyl methacrylate (DMAEMA) and poly(ethylene glycol) methacrylate (PEGMA Mn 360) in 500 mL Milli-Q/MeOH, was mixed with freshly made ascorbic acid (4 mmol). The mixture was applied to 50 slides for 6 hours under the argon atmosphere for the surface-initiated polymerization. A gradient ratio of PEGMA and DMAEMA was set, including 10:0, 8:2, 5:5, 2:8 and 0:10 for an optimization purpose. The terminals of the brushes were further functionalized by N,N′-disuccinimidyl carbonate (DSC, 10 mM) and 4-dimethylaminopyridine (DMAP,10 mM) in DMF overnight to form succinimidyl carbonate intermediate, and, successively, diazirine linker 1 (10 mM) and N,Ndiisopropylethylamine (DIPEA, 50 mM) in DMF for 2 hours to couple the photoaffinity linker in dark at room temperature. At the end, the substrates were immerged in a 50 mM ethanolamine in DMF to block the residual carboxylic moiety. The slides were thoroughly washed by DMF, EtOH and DCM and dried in a fuming cupboard and ready for spotting.
10 mM of rapafucins in DMSO from the library were spotted onto the slides with a high-precision microarrayer (Nanoprint, Arrayit, CA) for a desired pattern in dark, which was loaded with 16 100-μm diameter micro-spotting pins. The pin heads were thoroughly washed and sonicated in ethanol and dried for 4 times under a compassed air between each sample loading. After overnight evaporation, the slides were exposed to 365-nm wavelength UV irradiation for 4 J/cm^2 by CL-1000L UV crosslinker (UVP, CA) for rapafucins covalent immobilization. The slides were ultrasonic cleaned successively in DCM, MeOH and Milli-Q water and stored in a −20° C. freezer.
In the optimization experiments, the slides were incubated with 50 nM purified recombinant FKBP12 for 1 hour, while in the GLUT1 screening, 10 mg/mL of cell lysate containing DDM-solubilized GLUT1 from GLUT1 overexpressed HEK293T was incubated for 1 hour. Successively, primary antibody and CY5 labeled secondary antibody were added for 1 hour. The chips were washed in buffer A for 5 mins 3 times after the sample and antibodies incubation. After centrifugation, the dried chips were scanned by a microarray scanner (Genepix, US) at 635-nm wavelength. The final result was analyzed by GenePix software.

[2] = test system: MCF-7 cells; test: cell cycle analysis of MCF-7 cells; format: cell-based, human; conditions: MCF-7, 5 μM, 24 h
Protocol: The effects of RgA on cell growth, survival, and cell death was then determined. […] Treatment with 5 μM of RgA caused an increase in G1 phase by approximately 23% in comparison to control and approximately 7% and 17% decreases in cells in S and G2/M phases, respectively. The induction in G1 phase cell cycle arrest by RgA is dose-dependent (FIG. 5A, FIG. 16). […] Jones and Thompson, Genes Dev. 2009, 23, 537-548. […] The IC50 values of RgA against several human cancer cell lines also was determined using the alamar blue cell proliferation assay.
MCF-7 cells were seeded at 5×10^5 cells/15 cm dish, allowed to recover overnight and subsequently treated with drugs or vehicle control for 24 h. Media was then collected and set aside. Cells were washed with PBS, trypsinized, combined with set aside media, pelleted at 500×g and then washed with 10 mL PBS followed by another 500×g spin. The pellet was resuspended in 0.5 mL PBS and added dropwise using a Pasteur pipette to 2 mL 75% ethanol in a 5 mL polystyrene tube being slowly agitated by a vortex. The cells were stored at 4° C. until staining. To do so, cells were pelleted at 500×g, resuspended in 5 mL PBS, rested for 60 seconds, pelleted again and washed by 5 mL PBS. The cell pellet was then resuspended in 0.5 mL staining solution (0.1% Triton-X-100, 0.2 mg/mL DNase free RNase A, and 0.02 mg/mL propidium iodide). Cells were allowed to stain for 30 min prior for analysis. Propidium iodide incorporation was measured using a FACSCalibur. The percentage of cells in each cell cycle stage was determined with FlowJo (v7.5.5) using a Watson analysis.

## CCC(C)C1C(=O)NCC(=O)N(C)CCC=CC(=O)OCC(C)(C)C(=O)C(=O)N2CCCCC2C(=O)OC(CCc2ccc(OC)c(OC)c2)c2cccc(c2)NC(=O)CCC(=O)N(C)C(CC(C)C)C(=O)NC(Cc2ccccc2)C(=O)N1C (stereo not shown) [JW11-D2, Rapaglutin A]
[1]
  3D SBR: 6.5 ± 1.4
[2]
  decrease in cells in G2/M phase: ~17%
  decrease in cells in S phase: approximately 7%
  increase in G1 phase in comparison to control: approximately 23%
